Measurements published in US20140364405A1, “TREATMENT OF SEBORRHOEA” (McFarlane Marketing (Aust.)Pty. Ltd., priority 2011, published 2014).

Tests used:
[1] = system: skin sebum (skin surface lipids); assay: Pilot clinical study: sebum reduction measured with Sebumeter SM810PC; format: in vivo, humans; settings: for sebum reduction: one side of face, after 28 days
Method: (§1) In an initial pilot study in humans, 3 topical formulations were evaluated for effectiveness in reduction of sebum or treatment of acne.
(§2) The active substance in each of these formulations was: • Formulation 1—natural isolutrol (sodium 24R—scymnol sulphate). • Formulation 2—synthetic (24R)—scymnol. • Formulation 3—synthetic racemic (24RS)—scymnol.
(§3) In each formulation, the active substance was incorporated at 0.015% w/w into an oil-free topical lotion. In the pilot study, each test formulation was applied to one side of the face of a test subject, twice daily, for 28 days in the case of Formulations 1 and 2, and for 42 days in the case of Formulation 3. For each test formulation, 10 healthy female test subjects participated in the pilot study.
For the evaluation of sebum reduction, a Sebumeter SM810PC (Courage+Khazaka electronic GmbH) was used to obtain measurement of skin sebum (skin surface lipids) on days 0, 3, 7, 14, 21, 28, 35 and 42. To accomplish this, a special purpose film of the cartridge measuring head was applied for 30 seconds to the relevant skin area. The cartridge was inserted into the Sebumeter SM810 PC for electronic determination of film transparency variations. The LC-display of the instrument presents the result in terms of μg/cm^2. Duplicated measurements were obtained on the same site at each visit, and the results were averaged.

liver dysfunction = settings: in vivo; cited from earlier work
seborrhoea = settings: particularly when used topically; cited from earlier work
[2] = system: total acne lesion (pustules, papules and comedones) counts; assay: Pilot clinical study: anti-acne treatment, total acne lesion counts; format: in vivo, humans; settings: 0.015% w/w in oil-free topical lotion, twice daily, over the 42 day test period
Method: as §1, §2, §3
For evaluation of anti-acne treatment, reduction in total acne lesion (pustules, papules and comedones) counts was measured.

[3] = 0.015% w/w in oil-free topical lotion, twice daily

## C[C@H](CC[C@@H](O)C(CO)CO)[C@H]1CC[C@H]2[C@@H]3[C@H](O)C[C@@H]4C[C@H](O)CC[C@]4(C)[C@H]3C[C@H](O)[C@]12C [(24R)-scymnol, 24R-(+)-5β-cholestane-3α,7α,12α,24,26,27-hexol]
[1]; [3]
  sebum reduction: at least as effective in sebum reduction as the active substance of Formulation 1
Liver dysfunction
  treatment of liver dysfunction: activity in the treatment of liver dysfunction

## C[C@H](CC[C@@H](O)C(CO)CO)[C@H]1CC[C@H]2[C@@H]3[C@H](O)C[C@@H]4C[C@H](O)CC[C@]4(C)[C@H]3C[C@H](O)[C@]12C [(24S)-scymnol]
[1]; as component of racemic (24RS)-scymnol of Formulation 3
  effect of presence of the non-natural enantiomer in the racemate on the sebum study: no adverse effect in the sebum study

## CC(CC[C@@H](O)C(CO)COS(=O)(=O)[O-])C1CCC2C3C(O)C[C@@H]4CC(O)CCC4(C)C3CC(O)C12C.[Na+] (stereo partly drawn) [sodium 24R-scymnol sulphate, 24(+)-3α, 7α,12α,24,26-pentahydroxy-coprostane-27-sodium sulphate ester]
seborrhoea
  treatment of seborrhoea: effective in the treatment of seborrhoea

## racemic (24RS,25RS) sodium scymnol sulphate [racemic (24RS)-scymnol]
[1]; [3]
  sebum reduction: at least as effective in sebum reduction as the active substances of Formulations 1 and 2
[1]; 0.015% w/w in oil-free topical lotion, twice daily, test period extended to 42 days
  sebum reduction when test period extended: sebum reduction continued
[2]
  reduction of total acne lesion counts: effective in reduction of total acne lesion counts
